Data taken from US8188139B2, “Heterocyclic-substituted phenyl methanones” (Hoffman-La Roche Inc., priority 2005, dated 2012).

biological target: T1, mGlyT-1b (Mus musculus, UniProt P28571); assay: Glycine uptake inhibition assay (mGlyT-1b); assay type: cell-based; details: inhibition of [3H]-glycine uptake in Flp-in-CHO cells transfected with mGlyT-1b cDNA; 20 min preincubation at 22° C.; read-out: IC50 (μM) at GlyT-1
T1 construct: host or cells: Flp-in-CHO
T1 sequence (P28571 1-651 isoform P28571-2): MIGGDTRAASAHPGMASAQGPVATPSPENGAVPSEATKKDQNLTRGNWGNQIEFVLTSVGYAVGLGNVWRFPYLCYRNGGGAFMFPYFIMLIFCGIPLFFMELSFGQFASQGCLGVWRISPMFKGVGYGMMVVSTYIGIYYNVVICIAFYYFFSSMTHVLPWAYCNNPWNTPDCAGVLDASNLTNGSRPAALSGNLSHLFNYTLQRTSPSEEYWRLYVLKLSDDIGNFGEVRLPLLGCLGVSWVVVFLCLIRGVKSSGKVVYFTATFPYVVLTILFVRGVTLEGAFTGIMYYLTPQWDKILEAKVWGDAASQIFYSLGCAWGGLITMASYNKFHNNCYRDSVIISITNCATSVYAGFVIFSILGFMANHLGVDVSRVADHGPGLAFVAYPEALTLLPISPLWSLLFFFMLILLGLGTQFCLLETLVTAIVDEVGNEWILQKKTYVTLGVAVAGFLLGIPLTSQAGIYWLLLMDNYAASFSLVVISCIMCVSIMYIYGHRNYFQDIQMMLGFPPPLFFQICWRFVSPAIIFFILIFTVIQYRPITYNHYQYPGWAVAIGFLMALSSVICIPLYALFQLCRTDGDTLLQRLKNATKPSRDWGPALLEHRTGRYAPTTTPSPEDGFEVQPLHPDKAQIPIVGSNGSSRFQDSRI
Procedure: DMEM complete medium: Nutrient mixture F-12 (Gibco Life-technologies), fetal bovine serum (FBS) 5%, (Gibco life technologies), Penicillin/Streptomycin1% (Gibco life technologies), Hygromycin 0.6 mg/ml (Gibco life technologies), Glutamine 1 mM Gibco life technologies)
Uptake buffer (UB): 150 mM NaCl, 10 mM Hepes-Tris, pH 7.4, 1 mM CaCl2, 2.5 mM KCl, 2.5 mM MgSO4, 10 mM (+) D-glucose.
Flp-in™-CHO (Invitrogen Cat n^o R758-07) cells stably transfected with mGlyT1b cDNA.
Glycine Uptake Inhibition Assay (mGlyT-1b)
On day 1 mammalian cells, (Flp-in™-CHO), transfected with mGlyT-1b cDNA, were plated at the density of 40,000 cells/well in complete F-12 medium, without hygromycin in 96-well culture plates. On day 2, the medium was aspirated, and the cells were washed twice with uptake buffer (UB). The cells were then incubated for 20 min at 22° C. with either (i) no potential competitor, (ii) 10 mM non-radioactive glycine, (iii) a concentration of a potential inhibitor. A range of concentrations of the potential inhibitor was used to generate data for calculating the concentration of inhibitor resulting in 50% of the effect (e.g. IC50, the concentration of the competitor inhibiting glycine uptake of 50%). A solution was then immediately added containing [^3H]-glycine 60 nM (11-16 Ci/mmol) and 25 μM non-radioactive glycine. The plates were incubated with gentle shaking, and the reaction was stopped by aspiration of the mixture and washing (three times) with ice-cold UB. The cells were lysed with scintillation liquid, shaken 3 hours, and the radioactivity in the cells was counted using a scintillation counter.

| Structure (SMILES) | IC50 [µM] |
| --- | --- |
| CC(Oc1ccc(S(C)(=O)=O)cc1C(=O)N1Cc2cc(Cl)c(Cl)cc2C1)C(F)(F)F (racemic) [Example 9, rac-(5,6-Dichloro-1,3-dihydro-isoindol-2-yl)-[5-methanesulfonyl-2-(2,2,2-trifluoro-1-methyl-ethoxy)-phenyl]-methanone] | 0.031 |
| C[C@H](Oc1ccc(S(C)(=O)=O)cc1C(=O)N1Cc2ccc(C3CCCOC3)cc2C1)C(F)(F)F (mixture of isomers) [Example 312, [5-Methanesulfonyl-2-((S)-2,2,2-trifluoro-1-methyl-ethoxy)-phenyl]-[5-(tetrahydro-pyran-3-yl)-1,3-dihydro-isoindol-2-yl]-methanone] | 0.032 |
| C[C@H](Oc1ccc(S(C)(=O)=O)cc1C(=O)N1Cc2cc(Cl)c(C3CCOC3)cc2C1)C(F)(F)F (mixture of isomers) [Example 359, [5-Chloro-6-(tetrahydro-furan-3-yl)-1,3-dihydro-isoindol-2-yl]-[5-methanesulfonyl-2-((S)-2,2,2-trifluoro-1-methyl-ethoxy)-phenyl]-methanone] | 0.01 |
| CC(C)Oc1ccc(S(C)(=O)=O)cc1C(=O)N1Cc2ccc(C3CCOC3)cc2C1 (racemic) [Example 360, rac-(2-Isopropoxy-5-methanesulfonyl-phenyl)-[5-(tetrahydro-furan-3-yl)-1,3-dihydro-isoindol-2-yl]-methanone] | 0.022 |
| CS(=O)(=O)c1ccc(OCC(F)(F)C(F)(F)F)c(C(=O)N2Cc3ccc(C4CCOC4)cc3C2)c1 (racemic) [Example 361, rac-[5-Methanesulfonyl-2-(2,2,3,3,3-pentafluoro-propoxy)-phenyl]-[5-(tetrahydro-furan-3-yl)-1,3-dihydro-isoindol-2-yl]-methanone] | 0.002 |
| CS(=O)(=O)c1ccc(OCC(F)(F)C(F)(F)F)c(C(=O)N2Cc3ccc(C4CCCOC4)cc3C2)c1 (racemic) [Example 364, rac-[5-Methanesulfonyl-2-(2,2,3,3,3-pentafluoro-propoxy)-phenyl]-[5-(tetrahydro-pyran-3-yl)-1,3-dihydro-isoindol-2-yl]-methanone] | 0.005 |
| CC(C)Oc1ccc(S(C)(=O)=O)cc1C(=O)N1Cc2cc(Cl)c(Cl)cc2C1 [Example 5, (5,6-Dichloro-1,3-dihydro-isoindol-2-yl)-(2-isopropoxy-5-methanesulfonyl-phenyl)-methanone] | 0.042 |
| C[C@H](Oc1ccc(S(C)(=O)=O)cc1C(=O)N1Cc2ccc(C(F)(F)F)cc2C1)C(F)(F)F [Example 15, [5-Methanesulfonyl-2-((S)-2,2,2-trifluoro-1-methyl-ethoxy)-phenyl]-(5-trifluoromethyl-1,3-dihydro-isoindol-2-yl)-methanone] | 0.021 |
| CC(C)Sc1ccc(S(C)(=O)=O)cc1C(=O)N1Cc2cc(Cl)c(Cl)cc2C1 [Example 16, (5,6-Dichloro-1,3-dihydro-isoindol-2-yl)-(2-isopropylsulfanyl-5-methanesulfonyl-phenyl)-methanone] | 0.048 |
| C[C@@H](Oc1ccc(S(C)(=O)=O)cc1C(=O)N1Cc2ccc(C(F)(F)F)cc2C1)C(F)(F)F [Example 17, [5-Methanesulfonyl-2-((R)-2,2,2-trifluoro-1-methyl-ethoxy)-phenyl]-(5-trifluoromethyl-1,3-dihydro-isoindol-2-yl)-methanone] | 0.012 |
| Cc1cc2c(cc1Cl)CN(C(=O)c1cc(S(C)(=O)=O)ccc1O[C@@H](C)C(F)(F)F)C2 [Example 24, (5-Chloro-6-methyl-1,3-dihydro-isoindol-2-yl)-[5-methanesulfonyl-2-((S)-2,2,2-trifluoro-1-methyl-ethoxy)-phenyl]-methanone] | 0.019 |
| COc1cc2c(cc1Cl)CN(C(=O)c1cc(S(C)(=O)=O)ccc1O[C@@H](C)C(F)(F)F)C2 [Example 27, (5-Chloro-6-methoxy-1,3-dihydro-isoindol-2-yl)-[5-methanesulfonyl-2-((S)-2,2,2-trifluoro-1-methyl-ethoxy)-phenyl]-methanone] | 0.022 |
| CCSc1ccc2c(c1)CN(C(=O)c1cc(S(C)(=O)=O)ccc1O[C@@H](C)C(F)(F)F)C2 [Example 32, (5-Ethylsulfanyl-1,3-dihydro-isoindol-2-yl)-[5-methanesulfonyl-2-((S)-2,2,2-trifluoro-1-methyl-ethoxy)-phenyl]-methanone] | 0.037 |
| CC(C)COc1ccc(S(C)(=O)=O)cc1C(=O)N1Cc2ccc(C(F)(F)F)cc2C1 [Example 35, (2-Isobutoxy-5-methanesulfonyl-phenyl)-(5-trifluoromethyl-1,3-dihydro-isoindol-2-yl)-methanone] | 0.028 |
| CNS(=O)(=O)c1ccc(OC(C)C)c(C(=O)N2Cc3ccc(C(F)(F)F)cc3C2)c1 [Example 43, 4-Isopropoxy-N-methyl-3-(5-trifluoromethyl-1,3-dihydro-isoindole-2-carbonyl)-benzenesulfonamide] | 0.034 |
| Cc1cc2c(cc1Cl)CN(C(=O)c1cc(S(C)(=O)=O)ccc1O[C@H](C)C(F)(F)F)C2 [Example 49, (5-Chloro-6-methyl-1,3-dihydro-isoindol-2-yl)-[5-methanesulfonyl-2-((R)-2,2,2-trifluoro-1-methyl-ethoxy)-phenyl]-methanone] | 0.034 |
| Cc1cc2c(cc1Cl)CN(C(=O)c1cc(S(C)(=O)=O)ccc1OCC(C)C)C2 [Example 56, (5-Chloro-6-methyl-1,3-dihydro-isoindol-2-yl)-(2-isobutoxy-5-methanesulfonyl-phenyl)-methanone] | 0.016 |
| CCSc1cc2c(cc1Cl)CN(C(=O)c1cc(S(C)(=O)=O)ccc1O[C@H](C)C(F)(F)F)C2 [Example 59, (5-Chloro-6-ethylsulfanyl-1,3-dihydro-isoindol-2-yl)-[5-methanesulfonyl-2-((R)-2,2,2-trifluoro-1-methyl-ethoxy)-phenyl]-methanone] | 0.036 |
| COc1cc2c(cc1Cl)CN(C(=O)c1cc(S(C)(=O)=O)ccc1SC(C)C)C2 [Example 71, (5-Chloro-6-methoxy-1,3-dihydro-isoindol-2-yl)-(2-isopropylsulfanyl-5-methanesulfonyl-phenyl)-methanone] | 0.049 |
| COc1ccc2c(c1)CN(C(=O)c1cc(S(C)(=O)=O)ccc1OC(C)C)C2 [Example 74, (2-Isopropoxy-5-methanesulfonyl-phenyl)-(5-methoxy-1,3-dihydro-isoindol-2-yl)-methanone] | 0.031 |
| Cc1cc2c(cc1C(F)(F)F)CN(C(=O)c1cc(S(C)(=O)=O)ccc1O[C@@H](C)C(F)(F)F)C2 [Example 99, [5-Methanesulfonyl-2-((S)-2,2,2-trifluoro-1-methyl-ethoxy)-phenyl]-(5-methyl-6-trifluoromethyl-1,3-dihydro-isoindol-2-yl)-methanone] | 0.042 |
| COc1cc2c(cc1C(F)(F)F)CN(C(=O)c1cc(S(C)(=O)=O)ccc1O[C@@H](C)C(F)(F)F)C2 [Example 100] | 0.045 |
| C[C@H](Oc1ccc(S(C)(=O)=O)cc1C(=O)N1Cc2ccc(OC(F)(F)F)cc2C1)C(F)(F)F [Example 103, [5-Methanesulfonyl-2-((S)-2,2,2-trifluoro-1-methyl-ethoxy)-phenyl]-(5-trifluoro-methoxy-1,3-dihydro-isoindol-2-yl)-methanone] | 0.046 |
| CS(=O)(=O)c1ccc(OCC2CCC2)c(C(=O)N2Cc3cnc(C(F)(F)F)cc3C2)c1 [Example 118, (2-Cyclobutyl-methoxy-5-methane-sulfonyl-phenyl)-(6-trifluoromethyl-1,3-dihydro-pyrrolo [3,4-c]pyridin-2-yl)-methanone] | 0.038 |
| CS(=O)(=O)c1ccc(-c2ccc(F)cc2)c(C(=O)N2Cc3cnc(C(F)(F)F)cc3C2)c1 [Example 121, (4′-Fluoro-4-methanesulfonyl-biphenyl-2-yl)-(6-trifluoromethyl-1,3-dihydro-pyrrolo[3,4-c]pyridin-2-yl)-methanone] | 0.047 |
| CS(=O)(=O)c1ccc(OCC2CCC2)c(C(=O)N2Cc3cc(C(F)(F)F)cnc3C2)c1 [Example 124, (2-Cyclobutyl-methoxy-5-methane-sulfonyl-phenyl)-(3-trifluoromethyl-5,7-dihydro-pyrrolo[3,4-b]pyridin-6-yl)-methanone] | 0.03 |
